In patent US9249145B2, “Heterocyclic derivatives of pyrazol-4-yl-pyrrolo[2,3-d]pyrimidines as janus kinase inhibitors” (Incyte Holdings Corporation, priority 2009, dated 2016):
Structures can show the parent of a compound that is named as a salt.

What was measured:
Jak2 (a.a. 828-1132) = target: T1, Jak2 (a.a. 828-1132) (Homo sapiens, UniProt O60674); test: In vitro JAK kinase assay (HTRF, phosphorylation of biotinylated peptide), JAK2; format: biochemical; conditions: 1 mM ATP; Examples 12-91; read-out: JAK2 IC50 (nM) @ 1 mM ATP
T1 construct: Jak2 (a.a. 828-1132); His tag (N); made in house; host or cells: insect cells (baculovirus)
In short: (§1)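 His-tagged catalytic domains expressed in baculovirus/insect cells; biotinylated peptide (500 nM) phosphorylation in 50 mM Tris pH 7.8, 100 mM NaCl, 5 mM DTT, 0.01% BSA, 1 h room temperature. ATP at Km (JAK1 90 μM, JAK2 30 μM) or 1 mM. EDTA stop, Eu-Py20/SA-APC HTRF read; IC50.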

[1] = target: T2, human JAK1 (a.a. 837-1142) (Homo sapiens, UniProt P23458); test: In vitro JAK kinase assay (HTRF, phosphorylation of biotinylated peptide), JAK1; format: biochemical; conditions: 1 mM ATP; Examples 12-91; read-out: JAK1 IC50 (nM) @ 1 mM ATP
T2 construct: The catalytic domains of human JAK1 (a.a. 837-1142); His tag (N); made in house; host or cells: insect cells (baculovirus)
In short: as §1

T2 sequence (P23458 849-1154): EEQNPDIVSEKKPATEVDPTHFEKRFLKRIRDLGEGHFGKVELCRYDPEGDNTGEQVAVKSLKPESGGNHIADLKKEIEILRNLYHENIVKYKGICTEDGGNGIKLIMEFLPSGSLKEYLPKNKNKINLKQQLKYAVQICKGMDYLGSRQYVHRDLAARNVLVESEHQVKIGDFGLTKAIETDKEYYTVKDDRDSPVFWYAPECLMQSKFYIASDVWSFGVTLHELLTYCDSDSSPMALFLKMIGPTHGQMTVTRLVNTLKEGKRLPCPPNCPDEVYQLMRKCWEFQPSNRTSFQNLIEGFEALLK
T1 sequence (O60674 828-1132): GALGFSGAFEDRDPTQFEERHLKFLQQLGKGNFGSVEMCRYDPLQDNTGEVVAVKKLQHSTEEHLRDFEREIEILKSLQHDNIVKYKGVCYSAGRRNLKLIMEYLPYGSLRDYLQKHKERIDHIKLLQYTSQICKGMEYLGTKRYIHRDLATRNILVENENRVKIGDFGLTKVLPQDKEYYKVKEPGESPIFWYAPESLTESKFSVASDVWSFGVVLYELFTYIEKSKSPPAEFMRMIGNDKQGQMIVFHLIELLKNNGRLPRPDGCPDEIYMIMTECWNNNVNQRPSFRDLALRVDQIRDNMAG

SMILES | IC50 (Jak2 (a.a. 828-1132)) | IC50 [1]
N#CCC(CN1CCN(S(=O)(=O)c2ccccc2C#N)CC1)n1cc(-c2ncnc3[nH]ccc23)cn1 (stereo not drawn) [Example 60, 2-(4-(2-(4-(7H-pyrrolo[2,3-d]pyrimidin-4-yl)-1H-pyrazol-1-yl)-3-cyanopropyl)piperazin-1-ylsulfonyl)benzonitrile] | < 10 nM | < 10 nM
Cc1ccc(S(=O)(=O)N2CCN(CC(CC#N)n3cc(-c4ncnc5[nH]ccc45)cn3)CC2)nc1 (stereo not drawn) [Example 63, 3-(4-(7H-pyrrolo[2,3-d]pyrimidin-4-yl)-1H-pyrazol-1-yl)-4-(4-(5-methylpyridin-2-ylsulfonyl)piperazin-1-yl)butanenitrile] | < 10 nM | < 10 nM
Cc1cccc(S(=O)(=O)N2CCN(CC(CC#N)n3cc(-c4ncnc5[nH]ccc45)cn3)CC2)n1 (stereo not drawn) [Example 64, 3-(4-(7H-pyrrolo[2,3-d]pyrimidin-4-yl)-1H-pyrazol-1-yl)-4-(4-(6-methylpyridin-2-ylsulfonyl)piperazin-1-yl)butanenitrile] | < 10 nM | < 10 nM
N#CCC(CN1CCN(S(=O)(=O)c2cccnc2)CC1)n1cc(-c2ncnc3[nH]ccc23)cn1 (stereo not drawn) [Example 65, 3-(4-(7H-pyrrolo[2,3-d]pyrimidin-4-yl)-1H-pyrazol-1-yl)-4-(4-(pyridin-3-ylsulfonyl)piperazin-1-yl)butanenitrile] | 10 to 50 nM | < 10 nM
N#CCC(CN1CCN(S(=O)(=O)c2ccccc2C(F)(F)F)CC1)n1cc(-c2ncnc3[nH]ccc23)cn1 (stereo not drawn) [Example 66, 3-(4-(7H-pyrrolo[2,3-d]pyrimidin-4-yl)-1H-pyrazol-1-yl)-4-(4-(2-(trifluoromethyl)phenylsulfonyl)piperazin-1-yl)butanenitrile] | < 10 nM | < 10 nM
N#CCC(CN1CCN(S(=O)(=O)c2cccs2)CC1)n1cc(-c2ncnc3[nH]ccc23)cn1 (stereo not drawn) [Example 67, 3-(4-(7H-pyrrolo[2,3-d]pyrimidin-4-yl)-1H-pyrazol-1-yl)-4-(4-(thiophen-2-ylsulfonyl)piperazin-1-yl)butanenitrile] | < 10 nM | < 10 nM
N#CCC(CN1CCN(S(=O)(=O)c2ccc(Cl)s2)CC1)n1cc(-c2ncnc3[nH]ccc23)cn1 (stereo not drawn) [Example 68, 3-(4-(7H-pyrrolo[2,3-d]pyrimidin-4-yl)-1H-pyrazol-1-yl)-4-(4-(5-chlorothiophen-2-ylsulfonyl)piperazin-1-yl)butanenitrile] | < 10 nM | < 10 nM
N#CCC(CN1CCN(C(=O)c2ccc(C(F)(F)F)cc2F)CC1)n1ccc(-c2ncnc3[nH]ccc23)c1 (stereo not drawn) [Example 78, 3-(3-(7H-pyrrolo[2,3-d]pyrimidin-4-yl)-1H-pyrrol-1-yl)-4-(4-(2-fluoro-4-(trifluoromethyl)benzoyl)piperazin-1-yl)butanenitrile] | 10 to 50 nM | < 10 nM
N#CCC(CN1CCN(C(=O)c2c(F)cc(C#N)cc2F)CC1)n1ccc(-c2ncnc3[nH]ccc23)c1 (stereo not drawn) [Example 79, 4-(4-(2-(3-(7H-pyrrolo[2,3-d]pyrimidin-4-yl)-1H-pyrrol-1-yl)-3-cyanopropyl)piperazine-1-carbonyl)-3,5-difluorobenzonitrile trifluoroacetate salt] | 50 to 100 nM | < 10 nM
N#CCC(CN1CCN(C(=O)c2cc(F)cc(F)c2)CC1)n1ccc(-c2ncnc3[nH]ccc23)c1 (stereo not drawn) [Example 81, 3-(3-(7H-pyrrolo[2,3-d]pyrimidin-4-yl)-1H-pyrrol-1-yl)-4-(4-(3,5-difluorobenzoyl)piperazin-1-yl)butanenitrile] | 50 to 100 nM | < 10 nM
COc1ccc(C(=O)N2CCN(CC(CC#N)n3ccc(-c4ncnc5[nH]ccc45)c3)CC2)cc1F (stereo not drawn) [Example 82, 3-(3-(7H-pyrrolo[2,3-d]pyrimidin-4-yl)-1H-pyrrol-1-yl)-4-(4-(3-fluoro-4-methoxybenzoyl)piperazin-1-yl)butanenitrile] | 10 to 50 nM | < 10 nM
N#CCC(CN1CCN(C(=O)c2ccc(F)cn2)CC1)n1ccc(-c2ncnc3[nH]ccc23)c1 (stereo not drawn) [Example 83, 3-(3-(7H-pyrrolo[2,3-d]pyrimidin-4-yl)-1H-pyrrol-1-yl)-4-(4-(5-fluoropicolinoyl)piperazin-1-yl)butanenitrile] | 10 to 50 nM | < 10 nM
N#CCC(CN1CCN(C(=O)c2ncc(Cl)cc2F)CC1)n1ccc(-c2ncnc3[nH]ccc23)c1 (stereo not drawn) [Example 84, 3-(3-(7H-pyrrolo[2,3-d]pyrimidin-4-yl)-1H-pyrrol-1-yl)-4-(4-(5-chloro-3-fluoropicolinoyl)piperazin-1-yl)butanenitrile] | 10 to 50 nM | 10 to 50 nM
N#CCC(CN1CCN(C(=O)c2ccc(F)c(OC(F)(F)F)c2)CC1)n1ccc(-c2ncnc3[nH]ccc23)c1 (stereo not drawn) [Example 85, 3-(3-(7H-pyrrolo[2,3-d]pyrimidin-4-yl)-1H-pyrrol-1-yl)-4-(4-(4-fluoro-3-(trifluoromethoxy)benzoyl)piperazin-1-yl)butanenitrile] | > 100 nM | 10 to 50 nM
N#CCC(CN1CCN(C(=O)c2cc(F)cc(C#N)c2)CC1)n1ccc(-c2ncnc3[nH]ccc23)c1 (stereo not drawn) [Example 86, 3-(4-(2-(3-(7H-pyrrolo[2,3-d]pyrimidin-4-yl)-1H-pyrrol-1-yl)-3-cyanopropyl)piperazine-1-carbonyl)-5-fluorobenzonitrile trifluoroacetate salt] | > 100 nM | 10 to 50 nM
N#CCC(CN1CCN(C(=O)c2ncc(C#N)cc2F)CC1)n1ccc(-c2ncnc3[nH]ccc23)c1 (stereo not drawn) [Example 87, 6-(4-(2-(3-(7H-pyrrolo[2,3-d]pyrimidin-4-yl)-1H-pyrrol-1-yl)-3-cyanopropyl)piperazine-1-carbonyl)-5-fluoronicotinonitrile] | > 100 nM | 10 to 50 nM

The remaining lines, values ahead:

IC50 (Jak2 (a.a. 828-1132)) | IC50 [1] | SMILES
< 10 nM | < 10 nM | N#CCC(CN1CCN(S(=O)(=O)c2cc(F)cc(F)c2)CC1)n1cc(-c2ncnc3[nH]ccc23)cn1 (stereo not drawn) [Example 61, 3-(4-(7H-pyrrolo[2,3-d]pyrimidin-4-yl)-1H-pyrazol-1-yl)-4-(4-(3,5-difluorophenylsulfonyl)piperazin-1-yl)butanenitrile trifluoroacetate salt]
< 10 nM | < 10 nM | N#CCC(CN1CCN(S(=O)(=O)c2cc(F)ccc2F)CC1)n1cc(-c2ncnc3[nH]ccc23)cn1 (stereo not drawn) [Example 62, 3-(4-(7H-pyrrolo[2,3-d]pyrimidin-4-yl)-1H-pyrazol-1-yl)-4-(4-(2,5-difluorophenylsulfonyl)piperazin-1-yl)butanenitrile trifluoroacetate salt]
10 to 50 nM | < 10 nM | N#CCC(CN1CCN(C(=O)Nc2c(F)cccc2F)CC1)n1cc(-c2ncnc3[nH]ccc23)cn1 (stereo not drawn) [Example 69, 4-(2-(4-(7H-pyrrolo[2,3-d]pyrimidin-4-yl)-1H-pyrazol-1-yl)-3-cyanopropyl)-N-(2,6-difluorophenyl)piperazine-1-carboxamide]
50 to 100 nM | 10 to 50 nM | N#CCC(CN1CCN(C(=O)Nc2c(Cl)cccc2Cl)CC1)n1cc(-c2ncnc3[nH]ccc23)cn1 (stereo not drawn) [Example 70, 4-(2-(4-(7H-pyrrolo[2,3-d]pyrimidin-4-yl)-1H-pyrazol-1-yl)-3-cyanopropyl)-N-(2,6-dichlorophenyl)piperazine-1-carboxamide]
10 to 50 nM | 10 to 50 nM | Cc1cccc(Cl)c1NC(=O)N1CCN(CC(CC#N)n2cc(-c3ncnc4[nH]ccc34)cn2)CC1 (stereo not drawn) [Example 71, 4-(2-(4-(7H-pyrrolo[2,3-d]pyrimidin-4-yl)-1H-pyrazol-1-yl)-3-cyanopropyl)-N-(2-chloro-6-methylphenyl)piperazine-1-carboxamide]
50 to 100 nM | 10 to 50 nM | N#CCC(CN1CCN(C(=O)Nc2ccc(F)cc2F)CC1)n1cc(-c2ncnc3[nH]ccc23)cn1 (stereo not drawn) [Example 72, 4-(2-(4-(7H-pyrrolo[2,3-d]pyrimidin-4-yl)-1H-pyrazol-1-yl)-3-cyanopropyl)-N-(2,4-difluorophenyl)piperazine-1-carboxamide]
> 100 nM | 10 to 50 nM | N#CCC(CN1CCN(C(=O)Nc2cccc(C(F)(F)F)c2F)CC1)n1cc(-c2ncnc3[nH]ccc23)cn1 (stereo not drawn) [Example 73, 4-(2-(4-(7H-pyrrolo[2,3-d]pyrimidin-4-yl)-1H-pyrazol-1-yl)-3-cyanopropyl)-N-(2-fluoro-3-(trifluoromethyl)phenyl)piperazine-1-carboxamide]
50 to 100 nM | 10 to 50 nM | N#CCC(CN1CCN(C(=O)Nc2ccccc2OC(F)F)CC1)n1cc(-c2ncnc3[nH]ccc23)cn1 (stereo not drawn) [Example 74, 4-(2-(4-(7H-pyrrolo[2,3-d]pyrimidin-4-yl)-1H-pyrazol-1-yl)-3-cyanopropyl)-N-(2-(difluoromethoxy)phenyl)piperazine-1-carboxamide]
50 to 100 nM | 10 to 50 nM | N#CCC(CN1CCN(C(=O)Nc2ccccc2OC(F)(F)F)CC1)n1cc(-c2ncnc3[nH]ccc23)cn1 (stereo not drawn) [Example 75]
> 100 nM | 10 to 50 nM | N#CCC(CN1CCN(C(=O)Nc2ccccc2C(F)(F)F)CC1)n1cc(-c2ncnc3[nH]ccc23)cn1 (stereo not drawn) [Example 76, 4-(2-(4-(7H-pyrrolo[2,3-d]pyrimidin-4-yl)-1H-pyrazol-1-yl)-3-cyanopropyl)-N-(2-(trifluoromethyl)phenyl)piperazine-1-carboxamide]
10 to 50 nM | < 10 nM | N#CCC(CN1CCN(C(=O)c2ncc(F)cc2F)CC1)n1ccc(-c2ncnc3[nH]ccc23)c1 (stereo not drawn) [Example 80, 3-(3-(7H-pyrrolo[2,3-d]pyrimidin-4-yl)-1H-pyrrol-1-yl)-4-(4-(3,5-difluoropicolinoyl)piperazin-1-yl)butanenitrile]
